Laboratory results reported in publication PMC12592502, “Unraveling the mechanisms behind the enhanced efficacy of β-lactam-based sideromycins” (Communications Biology, 2025).
≈ marks a conversion by molar mass, not a printed value. Where two headings read alike, the source gives them in different places.

Key:
P. aeruginosa ATCC 27853 = experiment: MIC, broth microdilution (CLSI); format: cell-based, Pseudomonas aeruginosa; conditions: for MIC in combination with PAβN: + 25 µg/mL PAβN
Protocol: (§1) All bacterial strains (see description and sources Table S1) were stored at −80 °C, and grown on tryptone soya agar (TSA) at 35 °C. The iron-deprived (ID)-MHBCA (cation-adjusted Muller-Hinton Broth, Becton Dickinson, Mississauga, ON, Canada) medium was prepared as reported by refs. [21],[50]. Briefly, MHBCA was treated with 10% Chelex® 50-100 mesh (Sigma) and stirred for 6 h at room temperature. The resin was removed by filtration. Divalent Ca^2+ (CaCl2), Mg^2+ (MgCl2), and Zn^2+(ZnSO4), were then added in the iron-depleted medium at 22, 12, and 1 μg/ml respectively. Finally, the pH was adjusted to 7.3, and the medium was sterilized with a 0.2-μm filter. Regular MHBCA (i.e., not treated with Chelex®) was used to compare the inhibitory activity of conjugates in iron-sufficient conditions.
(§2) Minimal inhibitory concentrations (MICs) were performed using a broth microdilution technique according to the Clinical and Laboratory Standards Institute (CLSI) guidelines. MICs were determined in MHBCA and in ID-MHBCA. To check the impact of β-lactamases, MICs in the presence of a β-lactamase inhibitor were also determined. The inhibitor was homogenized at 2X the final concentration and added to the bacterial inoculum just before distributing cells into the wells containing the drug dilutions. The final concentration of each inhibitor was 4 μg/mL for clavulanic acid (tested against K. pneumoniae) and 200 μg/mL for 3-aminophenylboronic acid (tested against P. aeruginosa and A. baumannii).

E. coli ΔampC = experiment: MIC, Keio mutant; format: cell-based, Escherichia coli
Protocol: as §1, with “conditions. The resin used for Chelex treatment was always fresh and had never been regenerated, ensuring consistent iron removal.” for “conditions.”
as §2

E. coli lptD4213 = experiment: MIC, hyperpermeable mutant; format: cell-based, Escherichia coli
Protocol: as §1, with “conditions. The resin used for Chelex treatment was always fresh and had never been regenerated, ensuring consistent iron removal.” for “conditions.”
as §2

E. coli ΔacrAB = experiment: MIC, efflux pump mutant; format: cell-based, Escherichia coli
Protocol: as §2

[1] = tested on: P. aeruginosa 1624 ΔmexCD-oprJ, ΔmexEF-oprN; experiment: MIC, efflux pump mutant; format: cell-based, Pseudomonas aeruginosa
Protocol: as §2

[2] = tested on: P. aeruginosa 1625 ΔmexAB-oprM, ΔmexEF-oprN; experiment: MIC, efflux pump mutant; format: cell-based, Pseudomonas aeruginosa
Protocol: as §2

[3] = tested on: P. aeruginosa 2302 MexAB, MexCD, MexEF upregulated; experiment: MIC, efflux pump overexpressing strain; format: cell-based, Pseudomonas aeruginosa
Protocol: as §2

PBP2 = PBP2 (Klebsiella pneumoniae, UniProt A6T696); experiment: Membrane PBP binding assay, competition with Bocillin FL; set-up: species or system K. pneumoniae ATCC 13883
Sequence of PBP2 (A6T696 entry or part of it): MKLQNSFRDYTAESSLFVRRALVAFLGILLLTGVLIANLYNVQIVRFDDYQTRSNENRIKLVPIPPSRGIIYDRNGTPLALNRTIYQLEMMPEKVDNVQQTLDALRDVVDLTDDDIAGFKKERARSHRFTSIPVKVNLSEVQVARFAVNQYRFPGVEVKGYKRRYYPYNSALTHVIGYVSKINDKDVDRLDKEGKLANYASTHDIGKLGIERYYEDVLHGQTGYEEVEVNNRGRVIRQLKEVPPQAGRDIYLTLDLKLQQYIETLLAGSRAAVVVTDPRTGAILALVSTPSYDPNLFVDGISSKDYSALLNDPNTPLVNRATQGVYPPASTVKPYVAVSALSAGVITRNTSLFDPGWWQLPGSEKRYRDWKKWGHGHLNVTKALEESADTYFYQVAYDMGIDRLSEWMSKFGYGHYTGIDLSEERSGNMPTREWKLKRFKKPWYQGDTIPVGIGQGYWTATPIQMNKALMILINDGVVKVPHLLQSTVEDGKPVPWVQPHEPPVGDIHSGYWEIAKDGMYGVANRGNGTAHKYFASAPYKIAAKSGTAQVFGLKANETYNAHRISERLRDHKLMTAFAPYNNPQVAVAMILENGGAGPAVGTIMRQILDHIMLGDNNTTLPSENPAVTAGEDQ
Protocol: Membrane extracts containing PBPs were obtained as described above. Briefly, all species were grown in 1 L of TSB until the OD600 reached 0.9. The washed pellet was incubated with lysozyme (400 μg/mL), DNase (10 μg/mL) RNase(10 μg/mL) and anti-protease cocktail (200 mg/20 mL). Lysis was done with a French press (20,000 psi) and membrane protein were pelleted by ultracentrifugation steps (100,000 × g). The pellet was suspended in a minimal volume (300–500 μL) of KP 0.05 M buffer at pH 7. The protein concentration in the membrane preparations was determined with the Micro BCA TM Protein Assay Kit (Thermo Fisher Scientific, Rockford, IL) using bovine serum albumin as a standard.
The PBP binding assay was done as described previously[36],[56],[57]. For each antibiotic concentration tested, a quantity of 25 to 40 μg of membrane preparation was used as the source of PBPs, depending on the species. For the purified PaPBP3, 150 ng was used in the assay. First, increasing concentrations of the test antibiotic was added to the membrane or purified PaPBP3 preparations and incubated for 10 min at 30 °C. The reporter molecule Bocillin FL was then added at 12.5 μM for the membrane PBPs preparations and at 500 nM for the pure PaPBP3 samples for an additional 20 min at 30 °C. All reactions were stopped with the addition of the Laemmli-loading buffer (Bio-Rad) containing fresh β-mercaptoethanol (Sigma). All reactions were then heated at 100°C for 3 min before migration on SDS-polyacrylamide discontinuous gel system (7.5% stacking and 10% separating). Control samples without Bocillin FL were also included to highlight autofluorescent proteins that are not PBPs.
To be able to visualize labeled PBPs after electrophoresis, gels were rinsed in water and fixed in a solution of 50% methanol and 7% acetic acid for 30 min. The fluorescent images of gels were obtained with the Typhoon FLA 9500 instrument (GE-Healthcare Bio-Sciences Inc., Baie-d’Urfé, QC, CA) using a 473 nm excitation wavelength. To obtain quantifiable data, the software Quantity One 1D analysis was used (version 4.6.6; Bio-Rad Laboratories, Richmond, CA). The volume (intensity × constant area) of each PBP was measured. […] All IC50 data were obtained from at least two independent PBP binding assays using two different sets of compound concentrations using a linear regression. The PBP profiles were confirmed, and the PBP numbering were determined using published data and individual molecular weights. […] For example, amdinocillin (Sigma) was used for PBP2 identification. […] The IC50 for PBP 2 of P. aeruginosa was measured by including the SDS-PAGE comigrating autofluorescent protein in the background, as done previously.

[4] = Pseudomonas aeruginosa, ATCC27853, ID-MHBCA (−), 0 µg/mL supplemental iron, read-out: MIC
[5] = Pseudomonas aeruginosa, ATCC27853, ID-MHBCA + 0.1 µg/mL supplemental iron, read-out: MIC
[6] = Pseudomonas aeruginosa, ATCC27853, ID-MHBCA + 1 µg/mL supplemental iron, read-out: MIC
[7] = Pseudomonas aeruginosa, ATCC27853, ID-MHBCA, + 200 μg/mL APB, read-out: MIC with β-lactamase inhibitor (βI)
[8] = Pseudomonas aeruginosa, ATCC27853, MHBCA (+), no inhibitor, read-out: MIC
[9] = Pseudomonas aeruginosa, ATCC27853, MHBCA, + 200 μg/mL 3-aminophenylboronic acid (APB), read-out: MIC with β-lactamase inhibitor (βI)
[10] = Escherichia coli, LPTD4213, lptD4213, ID-MHBCA (−)
[11] = Escherichia coli, LPTD4213, lptD4213, MHBCA (+)
[12] = K. pneumoniae ATCC 13883 membranes, read-out: IC50 PBP2
[13] = ID-MHBCA (−), 0 µg/mL supplemental iron, read-out: MIC
[14] = MHBCA (+), no inhibitor, read-out: MIC

| SMILES | MIC ratio unconjugated β-lactam/conjugate (P. aeruginosa ATCC 27853; ID-MHBCA) | MIC ratio unconjugated β-lactam/conjugate (P. aeruginosa ATCC 27853; MHBCA) | MIC in combination with PAβN (P. aeruginosa ATCC 27853; MHBCA) | MIC (P. aeruginosa ATCC 27853; [4]) | MIC (P. aeruginosa ATCC 27853; [5]) | MIC (P. aeruginosa ATCC 27853; [6]) | MIC (P. aeruginosa ATCC 27853; [7]) | MIC (P. aeruginosa ATCC 27853; [8]) | MIC (P. aeruginosa ATCC 27853; [9]) | MIC (E. coli ΔampC; Escherichia coli, ID-MHBCA) | MIC (E. coli ΔampC; Escherichia coli, MHBCA) | MIC (E. coli lptD4213; [10]) | MIC (E. coli lptD4213; [11]) | MIC (E. coli ΔacrAB; Escherichia coli) | MIC ([1]; Pseudomonas aeruginosa) | MIC ([2]; Pseudomonas aeruginosa) | MIC ([3]; Pseudomonas aeruginosa) | IC50 (PBP2; [12]) | MIC (P. aeruginosa ATCC 27853; [13]) | MIC (P. aeruginosa ATCC 27853; [14]) | further results |
| --- | --- | --- | --- | --- | --- | --- | --- | --- | --- | --- | --- | --- | --- | --- | --- | --- | --- | --- | --- | --- | --- |
| CC1(C)SC2C(NC(=O)C(NC(=O)CN(CCCCNC(=O)c3cccc(O)c3O)C(=O)c3cccc(O)c3O)c3ccccc3)C(=O)N2C1C(=O)O (centres unmarked) [BAMP, bis-catechol (azotochelin)-ampicillin] | >2048 | >128 | 0.2 µM | 0.1 µM (≈ 0.075 µg/mL) | 0.8 µM | 13 µM | 0.1 µM | 1.6 µM (≈ 1.2 µg/mL) | 1.6 µM | 0.012 µM (≈ 0.009 µg/mL) | 0.024 µM (≈ 0.018 µg/mL) | 0.024 µM (≈ 0.018 µg/mL) | 0.05 µM (≈ 0.0375 µg/mL) | 0.05 µM (≈ 0.0375 µg/mL) | 0.4 µM (≈ 0.3 µg/mL) | 0.2 µM (≈ 0.15 µg/mL) | 0.4 µM (≈ 0.3 µg/mL) | 5.1 ± 2.1 µM |  |  | potentiation of activity (MIC decrease) by PAβN (P. aeruginosa ATCC 27853; 25 µg/mL PAβN): 8 fold; MIC ratio 0/1 (P. aeruginosa ATCC 27853; ID-MHBCA, 0 and 1 µg/mL supplemental iron (Table S2)): 128; MIC ratio 1/0 (P. aeruginosa ATCC 27853; ID-MHBCA, 1 versus 0 µg/mL supplemental iron (peer review file table)): 128 |
| CC1(C)S[C@@H]2[C@H](NC(=O)[C@H](N)c3ccccc3)C(=O)N2[C@H]1C(=O)O [AMP, ampicillin, reference compound] |  |  | > 200 µM | > 200 µM |  | > 200 µM | 100 µM | > 200 µM | 100 µM | 6.3 µM (≈ 2.2 µg/mL) | 6.3 µM (≈ 2.2 µg/mL) | 0.4 µM (≈ 0.14 µg/mL) | 0.4 µM (≈ 0.14 µg/mL) | 6.3 µM (≈ 2.2 µg/mL) | > 200 µM | > 200 µM | > 200 µM | 9.2 ± 1.9 µM | >200 µM | >200 µM | MIC (E. coli lptD4213; lptD4213, MHBCA (+)): 0.4 µM (≈ 0.14 µg/mL) |
| O=C(CN(CCCCNC(=O)c1cccc(O)c1O)C(=O)c1cccc(O)c1O)NC(C(=O)NC1C(=O)N2C(C(=O)O)=C(Cl)CCC12)c1ccccc1 (centres unmarked) [BLOR, bis-catechol (azotochelin)-loracarbef] | No activity | >16 | > 200 µM | > 200 µM | > 200 µM | > 200 µM | 0.8 µM | 13 µM (≈ 9.75 µg/mL) | 6.3 µM | 0.006 µM (≈ 0.0045 µg/mL) | 0.006 µM (≈ 0.0045 µg/mL) | 0.006 µM (≈ 0.0045 µg/mL) | 0.006 µM (≈ 0.0045 µg/mL) | 0.012 µM (≈ 0.009 µg/mL) | 6.3 µM (≈ 4.73 µg/mL) | 6.3 µM (≈ 4.73 µg/mL) | 13 µM (≈ 9.75 µg/mL) | 33.9 ± 5.6 µM | >200 µM |  |  |
| O=C(CCC(=O)N(CCCCNC(=O)c1cccc(O)c1O)CCCNC(=O)c1cccc(O)c1O)NCCCCCN(O)C(=O)CCCC(=O)NC(C(=O)NC1C(=O)N2C(C(=O)O)=C(Cl)CSC12)c1ccccc1 (centres unmarked) [MCEF, mixed ligand bis-catechol-mono-hydroxamate-cefaclor] | No activity | No activity | > 200 µM | > 200 µM |  | > 200 µM | > 200 µM | > 200 µM | > 200 µM | > 200 µM | 13 µM (≈ 14.1 µg/mL) | 1.6 µM (≈ 1.73 µg/mL) | 1.6 µM (≈ 1.73 µg/mL) | 3.1 µM (≈ 3.35 µg/mL) | > 100 µM | > 100 µM | > 100 µM |  | >200 µM | >200 µM | MIC (P. aeruginosa ATCC 27853; MHBCA (+), no inhibitor, listed as Mix-CEF, read-out: MIC): > 200 µM; IC50 (PBP2; read-out: IC50 PBP2, K. pneumoniae ATCC 13883 membranes): 16.8 ± 0.3 µM |
| N[C@@H](C(=O)N[C@@H]1C(=O)N2C(C(=O)O)=C(Cl)CC[C@H]12)c1ccccc1 [LOR, loracarbef, reference compound] |  |  | > 200 µM |  |  |  |  |  |  |  |  |  |  |  |  |  |  | > 50 µM | >200 µM | >200 µM | MIC (P. aeruginosa ATCC 27853; ID-MHBCA + 1 µg/mL supplemental iron, read-out: MIC): > 200 µM; MIC (P. aeruginosa ATCC 27853; ID-MHBCA, + 200 μg/mL APB, read-out: MIC with β-lactamase inhibitor (βI)): >200 µM; MIC (P. aeruginosa ATCC 27853; MHBCA, + 200 μg/mL 3-aminophenylboronic acid (APB), read-out: MIC with β-lactamase inhibitor (βI)): >200 µM; MIC (E. coli ΔampC; ID-MHBCA): 3.1 µM (≈ 1.08 µg/mL); MIC (E. coli ΔampC; MHBCA): 3.1 µM (≈ 1.08 µg/mL); MIC (E. coli lptD4213; lptD4213, ID-MHBCA (−)): 1.6 µM (≈ 0.56 µg/mL); MIC (E. coli lptD4213; lptD4213, MHBCA (+)): 1.6 µM (≈ 0.56 µg/mL); MIC (E. coli ΔacrAB; ΔacrAB): 3.1 µM (≈ 1.08 µg/mL); MIC ([1]; P. aeruginosa 1624): > 200 µM; MIC ([2]; P. aeruginosa 1625): > 200 µM; MIC ([3]; P. aeruginosa 2302): > 200 µM |
| N[C@@H](C(=O)N[C@@H]1C(=O)N2C(C(=O)O)=C(Cl)CS[C@H]12)c1ccccc1 [CEF, cefaclor, reference compound] |  |  | > 200 µM | > 200 µM |  | > 200 µM | > 200 µM | > 200 µM | > 200 µM | 3.1 µM (≈ 1.14 µg/mL) | 3.1 µM (≈ 1.14 µg/mL) | 3.1 µM (≈ 1.14 µg/mL) | 3.1 µM (≈ 1.14 µg/mL) | 6.3 µM (≈ 2.32 µg/mL) | > 200 µM | > 200 µM | > 200 µM |  | >200 µM | >200 µM | IC50 (PBP2): > 50 µM |
